A short description of the series: gradient 5% acetonitrile 3 min, to 50% in 2 min, to 85% in 15 min, held 3 min, 100 µL/min. As to conditions: column: Zorbax Extend-C18 2.1 x 50 mm; eluents: water / acetonitrile, 0.1% formic acid. An outline of the steps:
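Each retention time is based on an adduct peak selected computationally and verified by manual inspection. Measurements used HPLC–quadrupole time-of-flight mass spectrometry in positive and negative ionization mode on mixtures of ~100 pure standards. Chromatography ran on a Zorbax Extend-C18 column (2.1 × 50 mm, 1.8 μm) at 100 μL/min with water and acetonitrile, each containing 0.1% formic acid, and dead and dwell volumes of 40 μL and 900 μL.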
Regarding `Cc1ccc(-c2cc3c4nnc(SCC(=O)Nc5ccc(F)cc5)n4ccn3n2)cc1C`, the RP-LC retention time turned out to be 931 s.

Consider `O=c1nc(Oc2ccccc2)nc2ncccn12`, for which the RP-LC retention time amounted to 688 s.

In turn, `Cc1[nH]nc(-c2c(C)sc(C)c2S(=O)(=O)NCCc2ccc(Cl)cc2)c1C` showed an RP-LC retention time of 1130 s.

The compound `Cc1ccc(CNC(=O)N2CCC(N3CCN(Cc4ccccc4)C(=O)C3=O)CC2)cc1` registered an RP-LC retention time of 768 s.

In turn, `Cc1ccsc1C(=O)N1CCN(c2ccc(=O)n(-c3ccc(Cl)cc3)n2)CC1` had an RP-LC retention time of 878 s.

Take `CCn1c(N2CCC(C(=O)NC3CCCCC3)CC2)cc(=O)n(C)c1=O`: the RP-LC retention time was 784 s.

Compound `CCc1nnc(-c2nnc(N3CCCC3)c3ccccc23)o1` yielded an RP-LC retention time of 625 s.

For `Cc1ccc(OCC(=O)N2CCCCC2c2nncn2CC2CC2)cc1` (stereo not given), the RP-LC retention time was found to be 767 s.

For `Cc1csc(-c2cc(S(=O)(=O)N3CCCC3)cn2CC(=O)N2CCCCC2)n1`, the RP-LC retention time turned out to be 875 s.

For `Cc1nn(CCC(=O)Nc2cccc(Cl)c2)c(=O)c2nn(-c3ccccc3)c(C)c12`, the RP-LC retention time was 867 s.

Turning to `Cc1ccc(-c2nnc(COc3cccc(NC(=O)c4n[nH]c5c4CCCC5)c3)o2)cc1`, the RP-LC retention time stood at 1010 s.

With `O=C(c1ccccc1)N1CCN(S(=O)(=O)c2cc3c4c(c2)CCC(=O)N4CCC3)CC1`, the RP-LC retention time turned out to be 789 s.

In turn, `Cc1cccc(S(=O)(=O)Nc2ccc3c(c2)CCC(=O)N3C)c1` gave an RP-LC retention time of 758 s.

With `Cc1oc(-c2cccc(Cl)c2)nc1Cn1nnc(-c2nc(-c3cccnc3)no2)c1C`, the RP-LC retention time is 1080 s.

Consider `Cc1cccc(-c2nnc(C)c(N3CCC4(CC3)OCCO4)n2)c1`, for which the RP-LC retention time was 673 s.

In turn, `CCn1c(=O)c(C(=O)NC2CC2)nc2cc(C)c(C)cc21` registered an RP-LC retention time of 887 s.

Compound `CCCN(CC1CCOC1)S(=O)(=O)c1cccc(F)c1` (stereo not given) gave an RP-LC retention time of 850 s.

`COc1ccc(Cc2nnc(NC(=O)c3cnc4ccccc4n3)o2)cc1` had an RP-LC retention time of 722 s.

Compound `CC(C)(C)n1nnnc1C1CC2(CCOCC2)C(=O)N1Cc1ccccc1F` (stereo not given) returned an RP-LC retention time of 756 s.

Compound `Cc1cc(N2CCC(C)CC2)n2nc(CN3CCN(C(C)C)CC3)nc2n1` yielded an RP-LC retention time of 590 s.

`Nc1nc(N)c2nc(-c3cccc(O)c3)cnc2n1` yielded an RP-LC retention time of 599 s.

The compound `O=C(CSc1ccc(N2CCCC(C(=O)NC3CC3)C2)nn1)NCc1ccc(F)cc1` (stereo not given) returned an RP-LC retention time of 622 s.

Compound `CCc1nc2cc(-c3noc(Cc4ccccc4Br)n3)ccc2o1` yielded an RP-LC retention time of 1220 s.

With `O=C(NC1CC1)C1CCN(S(=O)(=O)c2cc(-c3noc(C4CCC4)n3)cs2)CC1`, the RP-LC retention time turned out to be 878 s.

`Cn1cc(Cl)c(C(=O)N2CCCC2c2ccccc2F)n1` (stereo not given) returned an RP-LC retention time of 813 s.

Compound `Cc1cc2[nH]c(C(=O)Nc3ccccc3Br)c(CN(C)C)c2s1` displayed an RP-LC retention time of 659 s.

For `O=C(c1ccc(/C=C/c2n[nH]c3ccccc23)cc1)N1CCNCC1`, the RP-LC retention time amounted to 648 s.

`COc1ccc(C2(C(=O)N3CCC(Cc4ccc(COc5ccncc5)cc4)CC3)CC2)cc1`: the RP-LC retention time came out at 750 s.

`CCCn1c(CCNC(=O)c2cc(C)cc(C)c2)nc2cccnc21`: the RP-LC retention time is 716 s.

Compound `CC(C)Oc1ccc(CN2CCC(C)(c3noc(C4CCOCC4)n3)CC2)cc1` registered an RP-LC retention time of 705 s.

In turn, `COC(=O)c1ccc(CSc2ccc(NC(=O)c3cccs3)nn2)o1` gave an RP-LC retention time of 820 s.

As for `Cn1cnc2ccc(-c3noc(-c4ccc(Br)cc4)n3)cc21`, the RP-LC retention time was 848 s.

Compound `CCOC(=O)c1nc(N2CCN(c3cccc(C(F)(F)F)c3)CC2)c2ccccc2n1` displayed an RP-LC retention time of 1070 s.

For the compound `Cc1ccc(-n2c(CN3CCN(C(=O)NC4CCCC4)CC3)nc3cccnc32)cc1`, the RP-LC retention time was found to be 663 s.

For the compound `Cc1ccc(-c2nc3ccccn3c2NC(=O)NCc2ccco2)cc1`, the RP-LC retention time came out at 629 s.

Compound `Cc1ccc(S(=O)(=O)NC2CCN(C(=O)C3CC(=O)N(C4CCCC4)C3)CC2)cc1` (stereo not given) had an RP-LC retention time of 727 s.

With `C#CCSc1nc2ccc([N+](=O)[O-])cc2s1`, the RP-LC retention time amounted to 935 s.

Compound `O=C(NCCC1=CCCCC1)C(=O)NCC1OCCCN1S(=O)(=O)c1ccccc1` (stereo not given) showed an RP-LC retention time of 911 s.

With `Cc1nc(-c2ccccc2)cc2nn(CC(=O)Nc3ccccc3Cl)c(=O)n12`, the RP-LC retention time is 966 s.

In turn, `Cc1ccc(-c2nnc(-c3cccc(S(=O)(=O)NCC(=O)O)c3)o2)cc1` displayed an RP-LC retention time of 764 s.

`CC(C)n1cc(C2=CCN(S(=O)(=O)c3cccc(C#N)c3)CC2)c2cccnc21` showed an RP-LC retention time of 995 s.

As to `O=C(Nc1ccc(N2CCN(Cc3ccc(F)cc3)C2=O)nc1)C1CCC1`, the RP-LC retention time was determined as 750 s.

With `CCN1C(=O)c2cccnc2Sc2cc(NC(=O)c3ccccc3C)ccc21`, the RP-LC retention time was found to be 833 s.

Regarding `CCCCN1C(=O)C(C)(C(=O)Nc2ccc(OC)c(Cl)c2)Oc2cccnc21` (stereo not given), the RP-LC retention time stood at 1080 s.

As for `CCN(CC)C(=O)CN1C(=O)COc2ccc(C(=O)N3CCCCC3)cc21`, the RP-LC retention time turned out to be 695 s.

On to `OCCNc1nc(N2CCOCC2)nc2c1cnn2-c1ccc(Cl)cc1`, for which the RP-LC retention time came out at 824 s.

In turn, `COc1cccc(C(=O)Nc2nc(-c3ccc4c(c3)NC(=O)C(C)O4)c(C)s2)c1` (stereo not given) registered an RP-LC retention time of 964 s.

As for `Cc1cc(Cl)ccc1N1C(=O)CN(S(C)(=O)=O)CC1(C)C(=O)NC1CCCCCC1` (stereo not given), the RP-LC retention time amounted to 984 s.

`CSc1ccc(-c2nc3cccc(C)n3c2Nc2ccc3c(c2)OCO3)cc1` returned an RP-LC retention time of 712 s.

In turn, `COc1ccc(C2C(C(=O)N3CCCC(C)C3)CCC(=O)N2c2cc(OC)c(OC)c(OC)c2)cc1` (stereo not given) showed an RP-LC retention time of 772 s.

Compound `CC(C)c1ccc(-c2nc(C3CC(=O)N(c4ccc(F)cc4)C3)no2)cc1` (stereo not given) showed an RP-LC retention time of 1180 s.

On to `CCc1csc(-c2ccc(N3CCN(C(=O)c4ccc(OC)c(OC)c4)CC3)nc2)n1`, for which the RP-LC retention time turned out to be 839 s.

`COc1ccc(NC(=O)Cn2c(=O)c(CCC(=O)NC3CCCCC3)nc3ccccc32)c(OC)c1` displayed an RP-LC retention time of 839 s.

Compound `CCc1nc(-c2csc(S(=O)(=O)N3CCC(C(=O)NC4CCCCC4)CC3)c2)no1` yielded an RP-LC retention time of 955 s.

`COCCN1C(=O)c2cc3ccsc3n2CC1(C)C(=O)NCc1ccc(Cl)cc1` (stereo not given) registered an RP-LC retention time of 837 s.

For `COCC(=O)Nc1ccc2c(c1)CCC(=O)N2C`, the RP-LC retention time came to 613 s.

`CC(C)(C)CC(C)(C)NCC(O)COC(C)(C)C` (stereo not given) displayed an RP-LC retention time of 588 s.

In turn, `FC(F)(F)c1ccc(/C=C/c2nc(COc3ccc(CCCCn4ccnn4)cc3)co2)cc1` had an RP-LC retention time of 1170 s.

For the compound `O=C(NCc1ccc(F)cc1)C1CCN(c2cnc3nccnc3c2)CC1`, the RP-LC retention time stood at 769 s.

In the case of `O=C(C1CC1)N1CCc2sc(S(=O)(=O)Nc3cccc(Cl)c3F)cc2C1`, the RP-LC retention time is 870 s.

These data come from the METLIN SMRT retention time set (Domingo-Almenara et al. 2019).
